Measured values from PubChem BioAssay (NCI).
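Method: 48-hour compound exposure of cells in 96-well plates, five concentrations, linear interpolation of endpoints. At the GI50, growth is halved. The concentration for full growth arrest is given as TGI.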

How the values were obtained:
Experiment in all cases: NCI anticancer screen, dose series, 48 h
MALME-3M melanoma = test system: MALME-3M melanoma
SK-MEL-2 melanoma = test system: SK-MEL-2 melanoma
SF-539 CNS = test system: SF-539 CNS
CCRF-CEM leukemia = test system: CCRF-CEM leukemia
SR leukemia = test system: SR leukemia
RXF 393 renal = test system: RXF 393 renal
UACC-257 melanoma = test system: UACC-257 melanoma
SF-268 CNS = test system: SF-268 CNS
OVCAR-5 ovarian = test system: OVCAR-5 ovarian
IGROV1 ovarian = test system: IGROV1 ovarian
A498 renal = test system: A498 renal
SNB-75 CNS = test system: SNB-75 CNS
786-0 renal = test system: 786-0 renal
A549 NSCLC = test system: A549 NSCLC
LOX IMVI melanoma = test system: LOX IMVI melanoma
HT29 colon = test system: HT29 colon
T-47D breast = test system: T-47D breast
UO-31 renal = test system: UO-31 renal
MDA-MB-231 breast = test system: MDA-MB-231 breast
MOLT-4 leukemia = test system: MOLT-4 leukemia
NCI-H522 lung = test system: NCI-H522 lung
SN12C renal = test system: SN12C renal
OVCAR-3 ovarian = test system: OVCAR-3 ovarian
U251 CNS = test system: U251 CNS
HL-60(TB) leukemia = test system: HL-60(TB) leukemia
HOP-92 NSCLC = test system: HOP-92 NSCLC
HCC-2998 colon = test system: HCC-2998 colon
UACC-62 melanoma = test system: UACC-62 melanoma
BT-549 breast = test system: BT-549 breast
NCI-H23 lung = test system: NCI-H23 lung
KM12 colon = test system: KM12 colon
SW-620 colon = test system: SW-620 colon
SF-295 CNS = test system: SF-295 CNS
RPMI-8226 leukemia = test system: RPMI-8226 leukemia
SK-MEL-5 melanoma = test system: SK-MEL-5 melanoma
EKVX NSCLC = test system: EKVX NSCLC
MCF7 breast = test system: MCF7 breast
DU-145 prostate = test system: DU-145 prostate
NCI-H460 lung = test system: NCI-H460 lung
COLO 205 colon = test system: COLO 205 colon
SK-OV-3 ovarian = test system: SK-OV-3 ovarian
NCI-H226 lung = test system: NCI-H226 lung
CAKI-1 renal = test system: CAKI-1 renal
HCT-116 colon = test system: HCT-116 colon
PC-3 prostate = test system: PC-3 prostate
HOP-62 NSCLC = test system: HOP-62 NSCLC
NCI/ADR-RES ovarian = test system: NCI/ADR-RES ovarian
M14 melanoma = test system: M14 melanoma
OVCAR-4 ovarian = test system: OVCAR-4 ovarian
MDA-MB-435 = test system: MDA-MB-435
HS 578T breast = test system: HS 578T breast
OVCAR-8 ovarian = test system: OVCAR-8 ovarian
ACHN renal = test system: ACHN renal
SK-MEL-28 melanoma = test system: SK-MEL-28 melanoma
SNB-19 CNS = test system: SNB-19 CNS
K-562 leukemia = test system: K-562 leukemia
HCT-15 colon = test system: HCT-15 colon
TK-10 renal = test system: TK-10 renal

CC1(C)CCC(S(=O)(=O)c2ccc3c(c2)/C(=N\O)c2cc(S(=O)(=O)N4CCN(c5ccc(F)cc5O)CC4)ccc2-3)CC1
GI50 (MALME-3M melanoma): 141 nM
TGI (MALME-3M melanoma): 295 nM
GI50 (SK-MEL-2 melanoma): 73 nM
TGI (SK-MEL-2 melanoma): 204 nM
GI50 (SF-539 CNS): 127 nM
TGI (SF-539 CNS): 270 nM
GI50 (CCRF-CEM leukemia): 93 nM
TGI (CCRF-CEM leukemia): 370 nM
GI50 (SR leukemia): 29.3 nM
TGI (SR leukemia): 80.2 nM
GI50 (RXF 393 renal): 157 nM
TGI (RXF 393 renal): 314 nM
GI50 (UACC-257 melanoma): 165 nM
TGI (UACC-257 melanoma): 491 nM
GI50 (SF-268 CNS): 109 nM
TGI (SF-268 CNS): 286 nM
GI50 (OVCAR-5 ovarian): 164 nM
TGI (OVCAR-5 ovarian): 367 nM
GI50 (IGROV1 ovarian): 149 nM
TGI (IGROV1 ovarian): 346 nM
GI50 (A498 renal): 840 nM
TGI (A498 renal): 2630 nM
GI50 (SNB-75 CNS): 162 nM
TGI (SNB-75 CNS): 324 nM
GI50 (786-0 renal): 186 nM
TGI (786-0 renal): 415 nM
GI50 (A549 NSCLC): 68 nM
TGI (A549 NSCLC): 218 nM
GI50 (LOX IMVI melanoma): 21.3 nM
TGI (LOX IMVI melanoma): 50.4 nM
GI50 (HT29 colon): 44 nM
TGI (HT29 colon): 182 nM
GI50 (T-47D breast): 104 nM
TGI (T-47D breast): 234 nM
GI50 (UO-31 renal): 188 nM
TGI (UO-31 renal): 460 nM
GI50 (MDA-MB-231 breast): 72.1 nM
TGI (MDA-MB-231 breast): 289 nM
GI50 (MOLT-4 leukemia): 76.2 nM
TGI (MOLT-4 leukemia): 242 nM
GI50 (NCI-H522 lung): 147 nM
TGI (NCI-H522 lung): 290 nM
GI50 (SN12C renal): 683 nM
GI50 (OVCAR-3 ovarian): 117 nM
TGI (OVCAR-3 ovarian): 285 nM
GI50 (U251 CNS): 105 nM
TGI (U251 CNS): 223 nM
GI50 (HL-60(TB) leukemia): 98.6 nM
TGI (HL-60(TB) leukemia): 288 nM
GI50 (HOP-92 NSCLC): 219 nM
TGI (HOP-92 NSCLC): 504 nM
GI50 (HCC-2998 colon): 104 nM
TGI (HCC-2998 colon): 262 nM
GI50 (UACC-62 melanoma): 71.7 nM
TGI (UACC-62 melanoma): 221 nM
GI50 (BT-549 breast): 133 nM
TGI (BT-549 breast): 286 nM
GI50 (NCI-H23 lung): 230 nM
TGI (NCI-H23 lung): 583 nM
GI50 (KM12 colon): 47.9 nM
TGI (KM12 colon): 220 nM
GI50 (SW-620 colon): 46.7 nM
TGI (SW-620 colon): 168 nM
GI50 (SF-295 CNS): 176 nM
TGI (SF-295 CNS): 394 nM
GI50 (RPMI-8226 leukemia): 126 nM
TGI (RPMI-8226 leukemia): 1150 nM
GI50 (SK-MEL-5 melanoma): 179 nM
TGI (SK-MEL-5 melanoma): 326 nM
GI50 (EKVX NSCLC): 152 nM
TGI (EKVX NSCLC): 515 nM
GI50 (MCF7 breast): 159 nM
TGI (MCF7 breast): 453 nM
GI50 (DU-145 prostate): 51.7 nM
TGI (DU-145 prostate): 284 nM
GI50 (NCI-H460 lung): 66.1 nM
TGI (NCI-H460 lung): 223 nM
GI50 (COLO 205 colon): 54.8 nM
TGI (COLO 205 colon): 183 nM
GI50 (SK-OV-3 ovarian): 109 nM
TGI (SK-OV-3 ovarian): 240 nM
GI50 (NCI-H226 lung): 206 nM
TGI (NCI-H226 lung): 512 nM
GI50 (CAKI-1 renal): 157 nM
TGI (CAKI-1 renal): 351 nM
GI50 (HCT-116 colon): 33.2 nM
TGI (HCT-116 colon): 119 nM
GI50 (PC-3 prostate): 108 nM
TGI (PC-3 prostate): 314 nM
GI50 (HOP-62 NSCLC): 101 nM
TGI (HOP-62 NSCLC): 237 nM
GI50 (NCI/ADR-RES ovarian): 443 nM
TGI (NCI/ADR-RES ovarian): 2630 nM
GI50 (M14 melanoma): 35.2 nM
TGI (M14 melanoma): 144 nM
GI50 (OVCAR-4 ovarian): 63.5 nM
TGI (OVCAR-4 ovarian): 263 nM
GI50 (MDA-MB-435): 107 nM
TGI (MDA-MB-435): 251 nM
GI50 (HS 578T breast): 163 nM
TGI (HS 578T breast): 448 nM
GI50 (OVCAR-8 ovarian): 86.9 nM
TGI (OVCAR-8 ovarian): 402 nM
GI50 (ACHN renal): 282 nM
TGI (ACHN renal): 1340 nM
GI50 (SK-MEL-28 melanoma): 129 nM
TGI (SK-MEL-28 melanoma): 293 nM
GI50 (SNB-19 CNS): 211 nM
TGI (SNB-19 CNS): 486 nM
GI50 (K-562 leukemia): 50.8 nM
TGI (K-562 leukemia): 188 nM
GI50 (HCT-15 colon): 153 nM
TGI (HCT-15 colon): 445 nM

O=C1/C(=C/c2cccc(O)c2)COc2ccccc21
TGI (MALME-3M melanoma): 26300 nM
TGI (SK-MEL-2 melanoma): 34600 nM
TGI (SF-539 CNS): 25800 nM
TGI (CCRF-CEM leukemia): > 100000 nM
TGI (SR leukemia): > 100000 nM
TGI (RXF 393 renal): 29000 nM
TGI (UACC-257 melanoma): 7290 nM
TGI (SF-268 CNS): 40800 nM
TGI (OVCAR-5 ovarian): 26600 nM
TGI (IGROV1 ovarian): 23100 nM
TGI (A498 renal): 34700 nM
TGI (SNB-75 CNS): 34500 nM
TGI (786-0 renal): 14500 nM
TGI (A549 NSCLC): 47200 nM
TGI (LOX IMVI melanoma): 3920 nM
TGI (HT29 colon): 11400 nM
TGI (T-47D breast): 21100 nM
TGI (UO-31 renal): 24800 nM
TGI (MDA-MB-231 breast): 21400 nM
TGI (NCI-H522 lung): 5820 nM
TGI (SN12C renal): 19800 nM
TGI (OVCAR-3 ovarian): 4850 nM
TGI (U251 CNS): 3800 nM
TGI (HL-60(TB) leukemia): 63800 nM
TGI (HOP-92 NSCLC): > 55600 nM
TGI (HCC-2998 colon): 1480 nM
TGI (UACC-62 melanoma): 9810 nM
TGI (BT-549 breast): 49500 nM
TGI (NCI-H23 lung): 18100 nM
TGI (KM12 colon): 7090 nM
TGI (SW-620 colon): 6790 nM
TGI (SF-295 CNS): 33400 nM
TGI (SK-MEL-5 melanoma): 22800 nM
TGI (EKVX NSCLC): 34000 nM
TGI (MCF7 breast): > 43600 nM
TGI (DU-145 prostate): 28100 nM
TGI (NCI-H460 lung): 54600 nM
TGI (COLO 205 colon): 31600 nM
TGI (SK-OV-3 ovarian): 46300 nM
TGI (NCI-H226 lung): 32400 nM
TGI (CAKI-1 renal): 11900 nM
TGI (HCT-116 colon): 3320 nM
TGI (PC-3 prostate): > 53800 nM
TGI (TK-10 renal): 31200 nM
TGI (HOP-62 NSCLC): 28400 nM
TGI (NCI/ADR-RES ovarian): 5250 nM
TGI (M14 melanoma): 13000 nM
TGI (OVCAR-4 ovarian): 21800 nM
TGI (MDA-MB-435): 17200 nM
TGI (HS 578T breast): 43600 nM
TGI (OVCAR-8 ovarian): 24400 nM
TGI (ACHN renal): 3890 nM
TGI (SK-MEL-28 melanoma): 11900 nM
TGI (SNB-19 CNS): 21800 nM
TGI (K-562 leukemia): > 33200 nM
TGI (HCT-15 colon): 3260 nM
